{"source": "paper PMC12524732", "about": "(2025)", "key": {"[1]": {"tested_on": "c-KIT2 (DNA, G4) CGGGCGGGCGCTAGGGAGGGT", "assay": "ITC", "conditions": "20 mM KCl; 10 mM KH2PO4, pH 7.0, 25 °C; ~20 µM DNA; up to 8 equivalents; Kb and n not determinable"}, "[2]": {"tested_on": "c-MYC (DNA, G4) TGAGGGTGGGTAGGGTGGGTAA", "assay": "ITC", "conditions": "20 mM KCl; 10 mM KH2PO4, pH 7.0, 25 °C; ~20 µM DNA; up to 8 equivalents; Kb and n not determinable"}, "[3]": {"tested_on": "c-KIT2 (DNA, G4) CGGGCGGGCGCTAGGGAGGGT", "assay": "1H-NMR titration", "conditions": "20 mM KCl; 10 mM KH2PO4, pH 7.0, 25 °C; 0.2 mM DNA; up to 8 equivalents; shifts up to ~50 Hz, 5′ G-quartet"}, "[4]": {"tested_on": "c-MYC (DNA, G4) TGAGGGTGGGTAGGGTGGGTAA", "assay": "1H-NMR titration", "conditions": "20 mM KCl; 10 mM KH2PO4, pH 7.0, 25 °C; 0.2 mM DNA; up to 8 equivalents; shifts up to ~70 Hz, mainly 3′ G-quartet"}, "[5]": {"tested_on": "mutTel24 (DNA, G4) TTGGGTTAGGGTTAGGGTTAGGGA", "assay": "1H-NMR titration", "conditions": "20 mM KCl; 10 mM KH2PO4, pH 7.0, 25 °C; 0.2 mM DNA; up to 4 equivalents; no shifts"}, "[6]": {"tested_on": "dsDNA duplex (DNA, duplex) GTAACTAGTTAACGATC/GATCGTTAACTAGTTAC", "assay": "1H-NMR titration", "conditions": "20 mM KCl; 10 mM KH2PO4, pH 7.0, 25 °C; 0.2 mM DNA; up to 4 equivalents; no shifts"}}}
{"smiles": "CC[C@]1(O)C[C@H]2CN(CCc3c([nH]c4ccccc34)[C@@](C(=O)OC)(c3cc4c(cc3OC)N(C=O)[C@H]3[C@@](O)(C(=O)OC)[C@H](OC(C)=O)[C@]5(CC)C=CCN6CC[C@]43[C@@H]65)C2)C1", "values": [{"measurement": "ΔH°", "setting": "[1]", "value": "−52.8 ± 5.8", "unit": "kJmol^−1"}, {"measurement": "ΔH°", "setting": "[2]", "value": "−11.7 ± 2.0", "unit": "kJmol^−1"}, {"measurement": "binding", "setting": "[3]", "value": "weak"}, {"measurement": "binding", "setting": "[4]", "value": "weak"}, {"measurement": "binding", "setting": "[5]", "value": "no"}, {"measurement": "binding", "setting": "[6]", "value": "no"}]}
